Reference: patent US12036312B2, “Non-aqueous topical compositions comprising a halogenated salicylanilide” (priority 2016, dated 2024)
In brackets after ≈: the same amount, converted by molar mass. Like-named read-outs stand apart in the source and are kept apart here.

What was measured:
S. aureus = assay: MIC assay according to CLSI criteria, Example 2, S. aureus strains; format: cell-based, Staphylococcus aureus; settings: Staphylococcus aureus, read-out: MIC
Method in brief: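 Broth microdilution per CLSI in cation-adjusted Mueller Hinton broth, ~5×10^5 exponential-phase cells per well, aerobic at 37° C for 18 hours; OD600 read at end.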

P. acnes = format: cell-based, Propionibacterium acnes; settings: for Frequency of mutation/ml: MIC × 4

Compound `CC(=O)O[C@H]1C[C@@]2(C)[C@@H](C[C@@H](O)[C@H]3[C@@]4(C)CC[C@@H](O)[C@@H](C)[C@@H]4CC[C@@]32C)/C1=C(\CCC=C(C)C)C(=O)O` [Fusidic acid, fusidic acid] has an MIC (S. aureus; MRSA, strain MRSA 01) of 0.125 µg/mL (≈ 0.242 µM), an MIC (S. aureus; MRSA, strain MRSA 02) of 0.5 µg/mL (≈ 0.968 µM) and an MIC (S. aureus; MRSA, strain MRSA 03) of 16 µg/mL (≈ 31 µM). The MIC (S. aureus; MRSA, strain MRSA 04) was 0.25 µg/mL (≈ 0.484 µM), the MIC (S. aureus; MRSA, strain MRSA 05) was 0.125 µg/mL (≈ 0.242 µM) and the MIC (S. aureus; MRSA, strain MRSA 06) was 0.125 µg/mL (≈ 0.242 µM). For the same compound, the MIC (S. aureus; MRSA, strain MRSA 07) was 0.25 µg/mL (≈ 0.484 µM), the MIC (S. aureus; MRSA, strain MRSA 08) was 0.125 µg/mL (≈ 0.242 µM) and the MIC (S. aureus; MRSA, strain MRSA 09) was 0.25 µg/mL (≈ 0.484 µM). It also gave an MIC (S. aureus; MRSA, strain MRSA 10) of 1 µg/mL (≈ 1.94 µM), an MIC (S. aureus; MRSA, strain MRSA 11) of 1 µg/mL (≈ 1.94 µM) and an MIC (S. aureus; MRSA, strain MRSA 12) of 4 µg/mL (≈ 7.74 µM). The MIC (S. aureus; MRSA, strain MRSA 14) was > 16 µg/mL, the MIC (S. aureus; MRSA, strain MRSA 16) was 0.25 µg/mL (≈ 0.484 µM) and the MIC (S. aureus; MRSA, strain MRSA 18) was 0.25 µg/mL (≈ 0.484 µM). For the same compound, the MIC (S. aureus; MRSA, strain MRSA 19) was 0.125 µg/mL (≈ 0.242 µM), the MIC (S. aureus; MRSA, strain MRSA 20) was 0.125 µg/mL (≈ 0.242 µM) and the MIC (S. aureus; MRSA, strain MRSA 21) was 0.125 µg/mL (≈ 0.242 µM). The MIC (S. aureus; MRSA, strain MRSA 23) was 0.25 µg/mL (≈ 0.484 µM), the MIC (S. aureus; MRSA, strain MRSA 24) was 0.25 µg/mL (≈ 0.484 µM) and the MIC (S. aureus; MRSA, strain MRSA 25) was 16 µg/mL (≈ 31 µM). The MIC (S. aureus; MRSA, strain MRSA 26) was 0.5 µg/mL (≈ 0.968 µM), the MIC (S. aureus; MRSA, strain MRSA 27) was 0.25 µg/mL (≈ 0.484 µM) and the MIC (S. aureus; MRSA, strain MRSA 30) was 0.125 µg/mL (≈ 0.242 µM). The MIC (S. aureus; MRSA, strain MRSA 31) was 0.25 µg/mL (≈ 0.484 µM), the MIC (S. aureus; MRSA, strain MRSA 32) was 0.5 µg/mL (≈ 0.968 µM) and the MIC (S. aureus; MRSA, strain MRSA 33) was 0.5 µg/mL (≈ 0.968 µM). The MIC (S. aureus; MRSA, strain MRSA 34) was 0.25 µg/mL (≈ 0.484 µM), the MIC (S. aureus; MRSA, strain MRSA 35) was 16 µg/mL (≈ 31 µM) and the MIC (S. aureus; MRSA, strain MRSA 36) was 8 µg/mL (≈ 15.5 µM). The MIC (S. aureus; MRSA, strain MRSA 37) was 0.5 µg/mL (≈ 0.968 µM), the MIC (S. aureus; MRSA, strain MRSA 38) was 8 µg/mL (≈ 15.5 µM) and the MIC (S. aureus; MRSA, strain MRSA 39) was 8 µg/mL (≈ 15.5 µM). It also gave an MIC (S. aureus; MRSA, strain MRSA 40) of 0.125 µg/mL (≈ 0.242 µM), an MIC (S. aureus; MRSA, strain MRSA 42) of 0.25 µg/mL (≈ 0.484 µM) and an MIC (S. aureus; MRSA, strain MRSA 49) of 0.25 µg/mL (≈ 0.484 µM). The MIC (S. aureus; MRSA, strain MRSA 50) was 0.03 µg/mL (≈ 0.0581 µM), the MIC (S. aureus; MRSA, strain MRSA 53) was 0.25 µg/mL (≈ 0.484 µM) and the MIC (S. aureus; MRSA, strain MRSA 64) was 0.25 µg/mL (≈ 0.484 µM). For the same compound, the MIC (S. aureus; MRSA, strain MRSA 67) was 0.25 µg/mL (≈ 0.484 µM), the MIC (S. aureus; MRSA, strain MRSA 72) was 16 µg/mL (≈ 31 µM) and the MIC (S. aureus; MRSA, strain MRSA 73) was 0.25 µg/mL (≈ 0.484 µM). The MIC (S. aureus; MRSA, strain MRSA 74) was 0.25 µg/mL (≈ 0.484 µM), the MIC (S. aureus; MRSA, strain MRSA 75) was 0.5 µg/mL (≈ 0.968 µM) and the MIC (S. aureus; MRSA, strain MRSA 76) was 0.25 µg/mL (≈ 0.484 µM). It also gave an MIC (S. aureus; MRSA, strain MRSA 77) of 16 µg/mL (≈ 31 µM), an MIC (S. aureus; MRSA, strain MRSA 79) of 0.5 µg/mL (≈ 0.968 µM) and an MIC (S. aureus; MRSA, strain MRSA 81) of 0.25 µg/mL (≈ 0.484 µM). The MIC (S. aureus; MRSA, strain MRSA 85) was 4 µg/mL (≈ 7.74 µM), the MIC (S. aureus; MRSA, strain MRSA 86) was > 16 µg/mL and the MIC (S. aureus; MRSA, strain MRSA 87) was 0.125 µg/mL (≈ 0.242 µM). It also gave an MIC (S. aureus; MRSA, strain MRSA 88) of 0.06 µg/mL (≈ 0.116 µM), an MIC (S. aureus; MRSA, strain MRSA 90) of 16 µg/mL (≈ 31 µM) and an MIC (S. aureus; MRSA, strain MRSA 91) of 0.25 µg/mL (≈ 0.484 µM). It also gave an MIC (S. aureus; MRSA, strain MRSA 92) of 8 µg/mL (≈ 15.5 µM), an MIC (S. aureus; MRSA, strain MRSA 94) of 0.125 µg/mL (≈ 0.242 µM) and an MIC (S. aureus; MRSA, strain MRSA 95) of 8 µg/mL (≈ 15.5 µM). For the same compound, the MIC (S. aureus; MRSA, strain MRSA 96) was 0.125 µg/mL (≈ 0.242 µM), the MIC (S. aureus; MRSA, strain MRSA 97) was 8 µg/mL (≈ 15.5 µM) and the MIC (S. aureus; MRSA, strain MRSA 99) was 0.125 µg/mL (≈ 0.242 µM). It also gave an MIC (S. aureus; MRSA, strain MRSA 100) of 0.125 µg/mL (≈ 0.242 µM), an MIC (S. aureus; MRSA, strain MRSA 101) of 8 µg/mL (≈ 15.5 µM) and an MIC (S. aureus; MRSA, strain MRSA 103) of 8 µg/mL (≈ 15.5 µM). For the same compound, the MIC (S. aureus; MRSA, strain MRSA 104) was 0.25 µg/mL (≈ 0.484 µM), the MIC (S. aureus; MRSA, strain MRSA 105) was 0.125 µg/mL (≈ 0.242 µM) and the MIC (S. aureus; MRSA, strain MRSA 106) was 0.125 µg/mL (≈ 0.242 µM). It also gave an MIC (S. aureus; MRSA, strain MRSA 107) of 0.25 µg/mL (≈ 0.484 µM), an MIC (S. aureus; MRSA, strain MRSA 108) of 4 µg/mL (≈ 7.74 µM) and an MIC (S. aureus; MRSA, strain MRSA 109) of 0.25 µg/mL (≈ 0.484 µM). For the same compound, the MIC (S. aureus; MRSA, strain MRSA 111) was 8 µg/mL (≈ 15.5 µM), the MIC (S. aureus; MRSA, strain MRSA 113) was 0.125 µg/mL (≈ 0.242 µM) and the MIC (S. aureus; MSSA, strain MSSA 01) was 4 µg/mL (≈ 7.74 µM). The MIC (S. aureus; MSSA, strain MSSA 02) was 4 µg/mL (≈ 7.74 µM), the MIC (S. aureus; NEWMAN, strain Newman) was 0.25 µg/mL (≈ 0.484 µM) and the “frequency of mutation of resistance” value (P. acnes; P. acnes) was ~1×10^−8. The Frequency of mutation/ml (P. acnes; P. acnes strain 998) was 9.17e-08 mL⁻¹, the Frequency of mutation/ml (P. acnes; P. acnes strain 1044) was 7.21e-08 mL⁻¹ and the Frequency of mutation/ml (P. acnes; P. acnes strain CSS3023) was 1.82e-08 mL⁻¹. For the same compound, the Frequency of mutation/ml (P. acnes; P. acnes strain CSS3288) was 6.15e-08 mL⁻¹.
